Assay results as given in ChEMBL document CHEMBL1128360 (J Med Chem, 1995).

Target: T1, 5-hydroxytryptamine receptor 1A (Rattus norvegicus, UniProt P19327)
T1 sequence (P19327 whole entry): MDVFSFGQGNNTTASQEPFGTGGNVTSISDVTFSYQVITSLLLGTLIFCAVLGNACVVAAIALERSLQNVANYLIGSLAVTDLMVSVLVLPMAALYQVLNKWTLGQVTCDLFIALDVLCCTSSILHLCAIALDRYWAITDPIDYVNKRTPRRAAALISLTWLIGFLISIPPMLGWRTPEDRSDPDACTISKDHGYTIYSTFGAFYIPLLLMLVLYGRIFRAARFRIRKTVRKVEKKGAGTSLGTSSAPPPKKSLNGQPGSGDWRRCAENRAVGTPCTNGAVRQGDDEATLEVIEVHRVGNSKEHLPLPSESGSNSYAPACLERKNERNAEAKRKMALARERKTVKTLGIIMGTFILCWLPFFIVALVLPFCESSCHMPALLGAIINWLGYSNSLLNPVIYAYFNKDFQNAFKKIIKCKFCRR
Experiment: Inhibitory affinity constant against 5-hydroxytryptamine 1A receptor

Ki: 10.5 nM
Structure (SMILES): CC1(C)CC(=O)N(CCCCN2CCN(c3ccc4ccccc4n3)CC2)C(=O)C1
